According to US20110053900A1, “PROGESTERONE ANTAGONISTS SUCH AS CDB-4124 IN THE TREATMENT OF BREAST CANCER” (Repros Therapeutics inc, priority 2008, published 2011):

Tests used:
[1] = Serum corticosterone by ELISA; type: in vivo, rat; conditions: exogenous progesterone 10 mg/kg, after 21 days of treatment, paired groups
Procedure: (§1) The animals were assessed three times for their levels of progesterone: initially, when they were about to go on treatment; a second time after 21 days of treatment; and finally after treatment at sacrifice which was 2-4 days after the last s.c. injection. All blood samples were taken by heart puncture; serum was prepared and held frozen at −40° C. The levels of the steroid hormones progesterone, cortisol, and corticosterone were determined by ELISA.
(§2) The concentrations of steroid hormones were determined three times during the study: before the beginning of treatments, after 21 days of treatment and finally after treatment at sacrifice which was 2-4 days after the last s.c. injection. All samples were taken by heart puncture. Serum was obtained and held frozen at −40° C. The levels of steroid hormones were determined by ELISA.
Corticosterone is the most abundant glucocorticoid in rats. The effects of the SPRMs on cortisol may be secondary to strong effects on corticosterone. […] The levels of corticosterone were 10-40 times higher than the levels of cortisol. However, almost no difference between groups with respect to mean corticosterone levels was observed. […] There was no statistical difference in levels of corticosterone between animals with tumors and without tumors at either 21-days (p=0.94, t-test, two-tailed) or at sacrifice (p=0.37, t-test, two-tailed).

[2] = system: rat tumors (proliferation marker Ki-67); assay: Tumor proliferation by Ki-67 immunohistochemistry; type: in vivo; conditions: 10 mg/kg
Source text: In order to assess the effects of progestins and anti-progestins on cell proliferation, tissue sections derived from 46 individual rat tumors from treated an control animals were examined by measuring expression of the proliferation marker Ki-67 using the Ki-67 antibody (NeoMarkers, Fremont, Calif.) and immunohistochemistry. Despite the reduction in size of many tumors in Groups 3 and 6 following treatment in Groups 3 and 6 making them too small to be re-cut, 7-12 ACAs from Groups 1, 3, 4, 6 and 11 were re-cut. The results of proliferation experiments, in which proliferation was measured as a percentage of cells expressing Ki-67, are summarized in Table 4: […]

[3] = system: progesterone receptor (PR); assay: Expression of progesterone receptor in tumors (IHC); type: in vivo, rat; conditions: 10 mg/kg
Procedure: (§3) The tumors that were evaluated for proliferation and apoptosis were also assessed for expression of estrogen and progesterone receptors by immunohistochemistry (IHC). The percentage of cells positive for ER and PR was determined and analyzed. Tumors were grouped into four different categories: tumors with 0% of cells expressing ER, tumors with 10% of cells expressing ER, tumors with 15 to 30% of cells expressing ER and tumors with 30-50% of cells expressing ER. In general, untreated tumors consistently expressed ER. Out of 12 tumors analyzed, all 12 expressed ER. Four out of these 12 tumors contained 30-50% ER-positive cells.
Untreated tumors consistently expressed PR (12/12 tumors). In general, untreated tumors expressed both receptors, ER and PR, therefore it is possible that many malignant tumors are expressors of these two transcription factors. […] In general, long term treatment with CDB-4124 tends to drive down the level of PR in tumors, whereas progesterone tends to work in the opposite direction. Thus, tumors maintain progesterone responsiveness in the presence of progesterone.

[4] = system: estrogen receptor (ER); assay: Expression of estrogen receptor in tumors (IHC); type: in vivo, rat; conditions: 10 mg/kg
Procedure: as §3

[5] = system: DMBA-induced tumors of the rat mammary gland; assay: DMBA-induced breast tumors: tumor number, size and tumor burden at necropsy; type: in vivo; conditions: 10 mg/kg s.c. daily, 28 days
Procedure: (§4) To induce breast tumors, Sprague-Dawley female rats were given 10 mg/kg body weight of DMBA at 50 days of age. One group of 14 rats (Group 2) received sesame oil at 50 days of age instead of DMBA to serve as the no-DMBA controls. Animals were weighed and palpated weekly along the milk line for any sign of lesions or swellings. Tumor nodules were noted and measured weekly in two dimensions with calipers. When tumors grew to a size of 10-12 mm in any dimension, the individual animal was randomized into one of 14 groups. Tumors appeared as soon as 39 days after oral gavage and as late as 194 days (latter individual not included in study). The mean latency period for tumor appearance was 106±30 days.
(§5) Animals were treated for 28 days on the following schedule. Group 1 received daily subcutaneous (s.c.) injections of vehicle (10% ethanol in sesame oil). Group 2 (no DMBA control group-no tumors expected) received vehicle on a schedule decided beforehand to simulate initiation of treatment over a three-month time period. […] Groups 5 through 9 received 20 mg/kg, 10 mg/kg, 2 mg/kg, 1 mg/kg and 0.1 mg/kg of CDB-4124, respectively. Groups 10 through 14 mirrored the treatment given 5 through 9 except that 10 mg/kg of micronized progesterone was also added as a component to compositions for injections.
(§6) Animals were sacrificed 3-5 days after the end of the 28-day treatment period, blood was drawn, and tumors were removed, weighed, measured, inspected, and portions frozen and/or placed in 10% phosphate buffered formalin for histopathology. The tissue samples were cut and stained with hematoxylin and eosin and were evaluated for histopathological classification.
The results in Table 3 are those for ACA, PCA and mixed ACA/PCA, but the FA or AF tumors are excluded.

[6] = system: DMBA-induced tumors of the rat mammary gland; assay: DMBA-induced breast tumors: tumor progression (growth pattern); type: in vivo; conditions: 10 mg/kg
Procedure: as §4, §5
In order to evaluate the effects of CDB-4124, RU486 and progesterone on tumor development and progression, growth kinetics and tumor size were monitored during the treatment period. Individual tumors from animals with tumors in the study were measured weekly in two dimensions with calipers. The data is corrected to exclude the non-malignant FA/AF tumor types. Tumors that increased in cross-sectional area by at least 33% over the 28-day inspection period were considered to be growing (FIG. 1, black boxes). Those that decreased by approximately 33% were considered to be regressing (FIG. 1, white boxes). Others were considered to be static (FIG. 1, gray boxes).

[7] = system: DMBA-induced tumors of the rat mammary gland; assay: DMBA-induced breast tumors: tumor number and tumor type at necropsy; type: in vivo; conditions: 10 mg/kg s.c. daily, 28 days
Procedure: as §4, §5, §6
Histologically, four types of tumors were identified (Table 2): adenocarcinomas (ACAs), papillary carcinomas (PCAs), a fibrosarcoma, and fibroadenomas or adenofibromas (FA or AF), the latter two tumor types were not considered to represent frank malignancies.

[8] = Serum progesterone by ELISA; type: in vivo, rat
Procedure: as §1, §2

[9] = system: rat tumors; assay: Apoptosis in tumors; type: in vivo; conditions: 10 mg/kg
Procedure: Apoptosis was evaluated in the same tumors by an apoptosis hybridization kit (Oncor, Gaithersburg, Md.). The cells in apoptosis were evaluated in the peripheral areas of the tumors and far from necrosis. At least 1,000 cells per tumor section were evaluated.

For `CC(=O)[C@H]1CC[C@H]2[C@@H]3CCC4=CC(=O)CC[C@]4(C)[C@H]3CC[C@]12C` [Progesterone, progesterone], the “effect on serum corticosterone (in words)” value [1] was “levels of corticosterone were lowered”, the “Proliferating tumor cells by Ki-67, % cells positive” value [2] was 25.7 ± 5.8% and the “PR expression in tumors (in words)” value [3] was “tended to raise PR expression”. The “number of cells expressing ER in tumors (in words)” value [4] was “increased number of cells expressing ER”, the “Tumor Burden” value [5] was 7.34 g/rat and the “Tumor Weight mean” value [5] was 1.5 g. The “Tumor Weight median” value [5] was 0.5 g, the “Number of Tumors” value ([5]; FA/AF excluded) was 49 and the “proportion of tumors regressing” value ([6]; decrease of cross-sectional area by about 33% over 28 days) was 8%. For the same compound, the “proportion of the growing tumors” value ([6]; increase of cross-sectional area by at least 33% over 28 days) was 80%, the “ACA + PCA per rat” value [7] was 4.90 and the ACA per rat [7] was 3.3. For the same compound, the FA/AF no. [7] was 3, the “Incidence of tumors (%)” value [7] was “(100) %” and the “Incidence of tumors (rats with tumors/rats)” value [7] was 10/10. For the same compound, the PCA per rat [7] was 1.4, the “ACA + PCA per rat” value ([7]; listed as progesterone) was roughly 5 and the “Serum Progesterone, Before TX (mean)” value ([8]; 10 mg/kg group, before treatment) was 51 ng/mL. For the same compound, the “Serum Progesterone, During TX (mean)” value ([8]; 10 mg/kg, after 21 days of treatment) was 55 ng/mL, the “Serum Progesterone, After TX (mean)” value ([8]; 10 mg/kg, at sacrifice 2-4 days after the last s.c. injection) was 54 ng/mL and the “Apoptosis, % cells positive” value [9] was 1.28 ± 0.51%.
